{"source": "patent US4968506A", "about": "“Pharmaceutical dosage with core of N-acetyl cystein” (Lejus Medical Aktienbolag, priority 1988, dated 1990)", "origin": "cited, not measured here", "tested_on": "mucous membrane in the stomach", "settings": "N-acetyl cysteine", "data": [{"smiles": "CC(=O)N[C@@H](CS)C(=O)O", "note": "[N-Acetyl cysteine, N-acetyl cysteine]", "values": [{"measurement": "reported side effects", "value": "irritating effect on the mucous membrane in the stomach"}]}]}
